According to patent publication US20230158025A1 (UNIVERSITY OF UTAH RESEARCH FOUNDATION, priority 2020, published 2023):

Legend:
recombinant human GALK1 = recombinant human GALK1 (Homo sapiens, UniProt P51570); assay: hGALK1 biochemical activity assay (Kinase-Glo Plus, ATP depletion); conditions: recombinant human GALK1, Kinase-Glo Plus ATP depletion; bracketed figure in the cell, e.g. (−1.2), is not defined in the text shown; read-out: hGALK
Summary of the method: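 Turnover is measured as ATP depletion by Kinase-Glo Plus luminescence after a 1 h room-temperature reaction. Compounds span 11 concentrations, 57.4 μM–0.97 nM, in final 20 mM HEPES pH 8.0 with 5 mM MgCl2. The substrate solution held 35 μM ATP; the added solution held 5 nM human or mouse GALK1 and 100 μM galactose.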

recombinant mouse GALK1 = recombinant mouse GALK1 (Mus musculus, UniProt Q9R0N0); assay: mGALK1 biochemical activity assay (Kinase-Glo Plus, ATP depletion); conditions: recombinant mouse GALK1, Kinase-Glo Plus ATP depletion; bracketed figure in the cell, e.g. (−1.2), is not defined in the text shown; read-out: mGALK
Summary of the method: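 Recombinant GALK1 (5 nM) with 100 μM galactose; GALK1 turnover read as ATP depletion by Kinase-Glo Plus luminescence. Reaction ran 1 h at room temperature before detection reagent was added.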

PAMPA permeability = conditions: PAMPA
[1] = aqueous kinetic solubility; conditions: aqueous kinetic solubility
[2] = rat microsomal stability (RLM); conditions: microsomal stability half-life, minutes

Sequence of recombinant mouse GALK1 (Q9R0N0 whole entry): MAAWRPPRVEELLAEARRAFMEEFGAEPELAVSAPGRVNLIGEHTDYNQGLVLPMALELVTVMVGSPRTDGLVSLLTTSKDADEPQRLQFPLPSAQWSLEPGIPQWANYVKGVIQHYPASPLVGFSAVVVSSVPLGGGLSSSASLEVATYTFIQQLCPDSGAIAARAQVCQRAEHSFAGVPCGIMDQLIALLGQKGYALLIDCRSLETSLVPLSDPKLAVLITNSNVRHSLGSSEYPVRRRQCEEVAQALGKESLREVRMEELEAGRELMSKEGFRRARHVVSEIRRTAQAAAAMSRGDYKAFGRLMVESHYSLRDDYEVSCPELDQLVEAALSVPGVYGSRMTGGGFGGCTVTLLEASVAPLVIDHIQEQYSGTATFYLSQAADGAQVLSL
Sequence of recombinant human GALK1 (P51570 whole entry): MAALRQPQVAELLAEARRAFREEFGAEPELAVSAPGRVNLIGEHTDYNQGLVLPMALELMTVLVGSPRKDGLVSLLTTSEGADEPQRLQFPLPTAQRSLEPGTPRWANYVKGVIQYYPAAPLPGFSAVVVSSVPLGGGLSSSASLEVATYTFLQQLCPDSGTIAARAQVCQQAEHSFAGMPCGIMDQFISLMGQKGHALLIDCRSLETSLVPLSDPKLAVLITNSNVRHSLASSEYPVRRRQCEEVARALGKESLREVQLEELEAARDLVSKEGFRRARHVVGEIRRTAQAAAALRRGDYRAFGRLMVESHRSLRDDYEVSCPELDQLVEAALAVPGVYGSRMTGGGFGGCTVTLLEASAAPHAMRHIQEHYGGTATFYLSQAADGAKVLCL

IC50 (recombinant human GALK1) [µM] | IC50 (recombinant mouse GALK1) [µM] | Perm. (1 × 10^−6 cm/sec) (PAMPA permeability) | Sol. [1] [µg/mL] | Metab. Stabil. (m) [2] [m] | Compound
3.85 | 5.44 | 31.9 1 × 10^−6 cm/sec | <1 | >30 | COc1ccc(C2N=C(Nc3nc4ccccc4o3)NC(C)=C2C(=O)Nc2nncs2)c(Cl)c1 (stereo not shown) [Compound 266, 2-(benzo[d]oxazol-2-ylamino)-4-(2-chloro-4-methoxyphenyl)-6-methyl-N-(1,3,4-thiadiazol-2-yl)-1,4-dihydropyrimidine-5-carboxamide]
13.7 | 17.2 | 19.8 1 × 10^−6 cm/sec | <1 | >30 | COc1ccc(Cl)c(C2N=C(Nc3nc4ccccc4o3)NC(C)=C2C(=O)Nc2nncs2)c1 (stereo not shown) [Compound 269, 2-(benzo[d]oxazol-2-ylamino)-4-(2-chloro-5-methoxyphenyl)-6-methyl-N-(1,3,4-thiadiazol-2-yl)-1,4-dihydropyrimidine-5-carboxamide]
6.11 | 10.9 | 2.9 1 × 10^−6 cm/sec | <1 | >30 | CC1=C(C(=O)Nc2nncs2)C(c2cc(Cl)ccc2Cl)N=C(Nc2nc3ccccc3o2)N1 (stereo not shown) [Compound 270, 2-(benzo[d]oxazol-2-ylamino)-4-(2,5-dichlorophenyl)-6-methyl-N-(1,3,4-thiadiazol-2-yl)-1,4-dihydropyrimidine-5-carboxamide]
8.63 | 24.3 | 417.5 1 × 10^−6 cm/sec | 3.5 | >30 | CC1=C(C(=O)Nc2nncs2)C2(CCSCC2)N=C(Nc2nc3ccccc3o2)N1 [Compound 271, 2-(benzo[d]oxazol-2-ylamino)-4-methyl-N-(1,3,4-thiadiazol-2-yl)-9-thia-1,3-diazaspiro[5.5]undeca-1,4-diene-5-carboxamide]

The remaining lines, values behind:

Compound | IC50 (recombinant human GALK1) [µM] | IC50 (recombinant mouse GALK1) [µM] | Perm. (1 × 10^−6 cm/sec) (PAMPA permeability) | Sol. [1] [µg/mL] | Metab. Stabil. (m) [2] [m]
CC1=C(C(=O)Nc2nncs2)C(c2ccccc2C)N=C(Nc2nc3ccccc3o2)N1 (stereo not shown) [Compound 267, 2-(benzo[d]oxazol-2-ylamino)-6-methyl-N-(1,3,4-thiadiazol-2-yl)-4-(o-tolyl)-1,4-dihydropyrimidine-5-carboxamide] | 12.2 | 21.7 | 83.8 1 × 10^−6 cm/sec | <1 | >30
CC1=C(C(=O)Nc2nncs2)C(c2n[nH]cc2Br)N=C(Nc2nc3ccccc3o2)N1 (stereo not shown) [Compound 268, 2-(benzo[d]oxazol-2-ylamino)-4-(4-bromo-1H-pyrazol-3-yl)-6-methyl-N-(1,3,4-thiadiazol-2-yl)-1,4-dihydropyrimidine-5-carboxamide] | 7.69 | 19.3 | 27.4 1 × 10^−6 cm/sec | 11.4 | >30
CCOC(=O)N1C(Nc2nc3ccccc3o2)=NC(c2ccccc2Cl)C(C(=O)Nc2cc(C(=O)O)ccn2)=C1C (stereo not shown) [Compound 274, 2-(2-(benzo[d]oxazol-2-ylamino)-4-(2-chlorophenyl)-1-(ethoxycarbonyl)-6-methyl-1,4-dihydropyrimidine-5-carboxamido)isonicotinic acid] | 9.68 | 19.3 | <1 1 × 10^−6 cm/sec | >85 | >30
CC1=C(C(=O)Nc2cc(C(=O)O)ccn2)C(c2ccccc2Cl)N=C(Nc2nc3ccccc3o2)N1C(=O)c1ccccc1 (stereo not shown) [Compound 275, 2-(2-(benzo[d]oxazol-2-ylamino)-1-benzoyl-4-(2-chlorophenyl)-6-methyl-1,4-dihydropyrimidine-5-carboxamido)isonicotinic acid] | 3.43 | 7.69 | <1 1 × 10^−6 cm/sec | 73.9 | >30
